The values that follow come from patent US11617745B2, “Compositions and methods for generating hair cells by downregulating FOXO” (Frequency Therapeutics, Inc., priority 2018, dated 2023).

“Also recorded” adds a separate entry of the source.

In this assay the test system is cochlear Lgr5+ progenitor cells. The experiment in a line: Expansion of Lgr5 cells in 3D culture, Lgr5-EGFP cells counted by flow cytometry. The assay is classed as cell-based, mice. How it is done:
Neonatal Lgr5-EGFP-IRES-Cre-ER mice (The Jackson Laboratory, strain 8875) were used to analyze the effects of small molecules on cochlear stem cell expansion (see Barker et al., Nature 449, 1003-7 (2007). This strain allowed for visualization and quantification of EGFP cells.
All animal studies were conducted under an approved institutional protocol per National Institutes of Health guidelines. Using neonatal animals, cochleae were dissected and the organ of Corti (sensory epithelium) was separated from the stria vascularis (ion transport epithelium) and the modiolus (nerve tissue). Epithelia were then collected and treated with TrypLE for 15-20 minutes to obtain single cells. The cells were then filtered ([…]) and suspended in a Matrigel (Corning) dome for 3D culture seeded at 0.5 cochlea per well.
Expansion of Lgr5 Cells: Cells were cultured in a 3D system and bathed in a serum free 1:1 mixture of DMEM and F12, supplemented with Glutamax (GIBCO), N2, B27 (Invitrogen), EGF (50 ng/mL; Chemicon), bFGF (50 ng/mL; Chemicon), IGF-1 (50 ng/mL; Chemicon), and small molecules for seven days. Media was changed every other day. Treatments were run in triplicate or quadruplicate.
Quantification of Cell Proliferation: Lgr5 cells were quantified after 7-10 days. Cell colonies were dissociated into single cells using TrypLE. The cells were then stained with propidium iodide (PI) and analyzed using a flow cytometer to count Lgr5-EGFP cells. The percentage of viable Lgr5 cells was plotted against the concentration in GraphPad Prism.
On the technique in general: In flow cytometry, cells or beads pass a laser one at a time.

Turning to `CCn1cc(C(=O)O)c(=O)c2c(N)c(F)c(NC3CCCCC3)cc21` [AS1842856], the “expansion of cochlear Lgr5+ progenitor cells in culture” value (AS1842856 425 nM, background of EFI) is reported as “elicits the expansion”. Moreover, for the setting “AS1842856 (425 nM) combined with VPA (1 mM), background of EFI”, the “enrichment of Lgr5 cells according to percentage” value is reported as “enriched according to percentage”. For the setting “EFI-AS1842856 alone”, the “Lgr5-GFP colony formation (images of Lgr5+ cell culture)” value is “promotes Lgr5-GFP colony formation”. Further, where the note is “EFI-AS1842856 with VPA added”, the “Lgr5-GFP colony enrichment (less Lgr5-negative cells in culture)” value is on record as “enriched when VPA is added”. Further, the “concentration dependence of Lgr5+ cell growth, enrichment and expansion of cochlear progenitor cells” value (background of EFI, range of concentrations) is recorded as “enhances expansion of cochlear progenitor cells concentration-dependent manner; also recorded: concentration-dependent effects”.
